Laboratory results from PubChem BioAssay AID1963443 (Molecular Pharmacology Branch, DTP, NCI, 2024).
Values joined by “and” are separate entries in the source; they are usually repeats but may differ in a detail not shown here. Equal values may be shown once.

Test system: MDA-MB-231 complex spheroids, growth inhibition
Experiment: Anticancer human tumor MDA-MB-231 cell line growth inhibition [Asc];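 further: spheroids exposed to compounds for 7 days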
Settings: for viability, T/C: stronger effect = lower value
In short: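 Complex spheroids combining tumor cells with HUVEC endothelial cells and human MSCs, at 37 degrees C, 5% CO2; agents tested alone or combined, half-log dilutions from at or near clinical Cmax, or 10 microM if Cmax unknown.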

Cc1nc(N2CCC3(CC2)COC(C)C3N)c(CO)nc1Sc1ccnc(N)c1Cl (configuration not stated) + Cc1c(S(C)(=O)=O)c(-c2cc(F)cc(N3CCN(c4ccc(NS(=O)(=O)c5ccc(NC(CCN6CCC(C(=O)OCCCP(=O)(O)O)CC6)CSc6ccccc6)c(S(=O)(=O)C(F)(F)F)c5)cc4)CC3)c2)c(-c2ccc(Cl)cc2)n1C(C)C
IC50 (curve of first compound, second compound 0.1 µM): 201 nM
IC50 (curve of first compound, second compound 0.316 µM): 249 nM
IC50 (curve of first compound, second compound 1 µM): 179 nM
IC50 (curve of first compound, second compound 3.16 µM): 162 nM
IC50 (curve of first compound, second compound 10 µM): 162 nM
viability, T/C (second compound 0.1 µM, first compound 0.00949 µM): 97.2%
viability, T/C (second compound 0.1 µM, first compound 0.03 µM): 90.9%
viability, T/C (second compound 0.1 µM, first compound 0.0949 µM): 76.8%
viability, T/C (second compound 0.1 µM, first compound 0.3 µM): 37%
viability, T/C (second compound 0.1 µM, first compound 0.949 µM): 1.43%
viability, T/C (second compound 0.1 µM, first compound 3 µM): 0.95%
viability, T/C (second compound 0.316 µM, first compound 0.00949 µM): 108%
viability, T/C (second compound 0.316 µM, first compound 0.03 µM): 99.8%
viability, T/C (second compound 0.316 µM, first compound 0.0949 µM): 88.9%
viability, T/C (second compound 0.316 µM, first compound 0.3 µM): 44.1%
viability, T/C (second compound 0.316 µM, first compound 0.949 µM): 1.42%
viability, T/C (second compound 0.316 µM, first compound 3 µM): 1.39%
viability, T/C (second compound 1 µM, first compound 0.00949 µM): 102%
viability, T/C (second compound 1 µM, first compound 0.03 µM): 94%
viability, T/C (second compound 1 µM, first compound 0.0949 µM): 81.6%
viability, T/C (second compound 1 µM, first compound 0.3 µM): 24.7%
viability, T/C (second compound 1 µM, first compound 0.949 µM): 0.73%
viability, T/C (second compound 1 µM, first compound 3 µM): 1.11%
viability, T/C (second compound 3.16 µM, first compound 0.00949 µM): 95.6%
viability, T/C (second compound 3.16 µM, first compound 0.03 µM): 93.4%
viability, T/C (second compound 3.16 µM, first compound 0.0949 µM): 78.7%
viability, T/C (second compound 3.16 µM, first compound 0.3 µM): 17%
viability, T/C (second compound 3.16 µM, first compound 0.949 µM): 1.15%
viability, T/C (second compound 3.16 µM, first compound 3 µM): 0.34%
viability, T/C (second compound 10 µM, first compound 0.00949 µM): 106%
viability, T/C (second compound 10 µM, first compound 0.03 µM): 103%
viability, T/C (second compound 10 µM, first compound 0.0949 µM): 82%
viability, T/C (second compound 10 µM, first compound 0.3 µM): 12.9%
viability, T/C (second compound 10 µM, first compound 0.949 µM): 0.64%
viability, T/C (second compound 10 µM, first compound 3 µM): 0.34%

Cn1ncnc1[C@H]1c2n[nH]c(=O)c3cc(F)cc(c23)N[C@@H]1c1ccc(F)cc1
viability, T/C (compound 0.000316 µM): 101% and 114% and 108%
viability, T/C (compound 0.001 µM): 100% and 110% and 86.8%
viability, T/C (compound 0.00316 µM): 92.4% and 90.3% and 77.6%
viability, T/C (compound 0.01 µM): 91.5% and 85.7% and 87.9%
viability, T/C (compound 0.0316 µM): 89.1% and 103% and 89.5%
viability, T/C (compound 0.1 µM): 84.4% and 100% and 74.3%
IC50 (curve of compound): > 100 nM

Cc1nc(N2CCC3(CC2)COC(C)C3N)c(CO)nc1Sc1ccnc(N)c1Cl (configuration not stated) + CCN1C(C(=O)NC23CCC(C(=O)O)(CC2)CC3)C(c2cccc(Cl)c2F)C2(C(=O)Nc3cc(Cl)ccc32)C12CCCCC2
IC50 (curve of first compound, second compound 0.03 µM): 319 nM
IC50 (curve of first compound, second compound 0.0949 µM): 337 nM
IC50 (curve of first compound, second compound 0.3 µM): 281 nM
IC50 (curve of first compound, second compound 0.949 µM): 270 nM
IC50 (curve of first compound, second compound 3 µM): 157 nM
viability, T/C (second compound 0.03 µM, first compound 0.00949 µM): 95.8%
viability, T/C (second compound 0.03 µM, first compound 0.03 µM): 95.4%
viability, T/C (second compound 0.03 µM, first compound 0.0949 µM): 96.7%
viability, T/C (second compound 0.03 µM, first compound 0.3 µM): 52.7%
viability, T/C (second compound 0.03 µM, first compound 0.949 µM): 2.27%
viability, T/C (second compound 0.03 µM, first compound 3 µM): 0.7%
viability, T/C (second compound 0.0949 µM, first compound 0.00949 µM): 95.7%
viability, T/C (second compound 0.0949 µM, first compound 0.03 µM): 95.7%
viability, T/C (second compound 0.0949 µM, first compound 0.0949 µM): 87.2%
viability, T/C (second compound 0.0949 µM, first compound 0.3 µM): 56%
viability, T/C (second compound 0.0949 µM, first compound 0.949 µM): 2.11%
viability, T/C (second compound 0.0949 µM, first compound 3 µM): 0.82%
viability, T/C (second compound 0.3 µM, first compound 0.00949 µM): 99.6%
viability, T/C (second compound 0.3 µM, first compound 0.03 µM): 99%
viability, T/C (second compound 0.3 µM, first compound 0.0949 µM): 98.3%
viability, T/C (second compound 0.3 µM, first compound 0.3 µM): 47.1%
viability, T/C (second compound 0.3 µM, first compound 0.949 µM): 2.58%
viability, T/C (second compound 0.3 µM, first compound 3 µM): 0.88%
viability, T/C (second compound 0.949 µM, first compound 0.00949 µM): 109%
viability, T/C (second compound 0.949 µM, first compound 0.03 µM): 108%
viability, T/C (second compound 0.949 µM, first compound 0.0949 µM): 107%
viability, T/C (second compound 0.949 µM, first compound 0.3 µM): 44.2%
viability, T/C (second compound 0.949 µM, first compound 0.949 µM): 2.18%
viability, T/C (second compound 0.949 µM, first compound 3 µM): 0.9%
viability, T/C (second compound 3 µM, first compound 0.00949 µM): 91.1%
viability, T/C (second compound 3 µM, first compound 0.03 µM): 89.2%
viability, T/C (second compound 3 µM, first compound 0.0949 µM): 81.8%
viability, T/C (second compound 3 µM, first compound 0.3 µM): 9.35%
viability, T/C (second compound 3 µM, first compound 0.949 µM): 1.26%
viability, T/C (second compound 3 µM, first compound 3 µM): 0.54%
